Source: ChEMBL document CHEMBL1201862, “PubChem BioAssay data set” (2004)
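Values below derive from 48-hour exposures of cells grown in 96-well plates, with endpoints linearly interpolated between the two concentrations bracketing the appropriate inhibition level. At the GI50, growth is halved.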 The source made the active and inactive calls. Cut-off read from the data, not from the text of the source: active = GI50 up to about 1.1 µM and inactive = higher.

Columns and labels:
Assay in all cases: NCI tumour cell line growth inhibition, 48 h
[1] = test system: 786-0
[2] = test system: A498
[3] = test system: A549
[4] = test system: ACHN
[5] = test system: BT-549
[6] = test system: CAKI-1
[7] = test system: CCRF-CEM
[8] = test system: COLO 205
[9] = test system: DU-145
[10] = test system: EKVX
[11] = test system: HCT-116
[12] = test system: HCT-15
[13] = test system: HL-60
[14] = test system: HOP-62
[15] = test system: HT-29
[16] = test system: Hs-578T
[17] = test system: IGROV-1
[18] = test system: K562
[19] = test system: KM12
[20] = test system: LOX IMVI
[21] = test system: M14
[22] = test system: MCF7
[23] = test system: MDA-MB-231
[24] = test system: MDA-MB-435
[25] = test system: MDA-N
[26] = test system: MOLT-4
[27] = test system: Malme-3M
[28] = test system: NCI-H226
[29] = test system: NCI-H23
[30] = test system: NCI-H522
[31] = test system: NCI/ADR-RES
[32] = test system: OVCAR-3
[33] = test system: OVCAR-4
[34] = test system: OVCAR-5
[35] = test system: OVCAR-8
[36] = test system: PC-3
[37] = test system: RPMI-8226
[38] = test system: RXF 393
[39] = test system: SF-268
[40] = test system: SF-295
[41] = test system: SK-MEL-28
[42] = test system: SK-MEL-2
[43] = test system: SK-MEL-5
[44] = test system: SK-OV-3
[45] = test system: SN12C
[46] = test system: SNB-19
[47] = test system: SNB-75
[48] = test system: SR
[49] = test system: SW-620
[50] = test system: T47D
[51] = test system: TK-10
[52] = test system: U-251
[53] = test system: UACC-257
[54] = test system: UACC-62
[55] = test system: UO-31
[56] = test system: HCC 2998
[57] = test system: NCI-H460
[58] = test system: SF-539

## O=CN1CCN(CC(O)CN2CCCCC2)CC1 (stereo unspecified)
[1]
  GI50: > 100 µM (inactive)
[2]
  GI50: > 100 µM (inactive)
[3]
  GI50: > 100 µM (inactive)
[4]
  GI50: > 100 µM (inactive)
[5]
  GI50: > 100 µM (inactive)
[6]
  GI50: > 100 µM (inactive)
[7]
  GI50: > 100 µM (inactive)
[8]
  GI50: > 100 µM (inactive)
[9]
  GI50: > 100 µM (inactive)
[10]
  GI50: > 100 µM (inactive)
[11]
  GI50: > 100 µM (inactive)
[12]
  GI50: > 100 µM
[13]
  GI50: > 100 µM (inactive)
[14]
  GI50: > 100 µM (inactive)
[15]
  GI50: > 100 µM (inactive)
[16]
  GI50: > 100 µM (inactive)
[17]
  GI50: > 100 µM (inactive)
[18]
  GI50: > 100 µM (inactive)
[19]
  GI50: > 100 µM (inactive)
[20]
  GI50: > 100 µM (inactive)
[21]
  GI50: > 100 µM (inactive)
[22]
  GI50: > 100 µM (inactive)
[23]
  GI50: > 100 µM (inactive)
[24]
  GI50: > 100 µM (inactive)
[25]
  GI50: > 100 µM (inactive)
[26]
  GI50: > 100 µM (inactive)
[27]
  GI50: > 100 µM (inactive)
[28]
  GI50: > 100 µM (inactive)
[29]
  GI50: > 100 µM (inactive)
[30]
  GI50: > 100 µM (inactive)
[31]
  GI50: > 100 µM (inactive)
[32]
  GI50: > 100 µM (inactive)
[33]
  GI50: > 100 µM (inactive)
[34]
  GI50: > 100 µM (inactive)
[35]
  GI50: > 100 µM (inactive)
[36]
  GI50: > 100 µM (inactive)
[37]
  GI50: > 100 µM (inactive)
[38]
  GI50: > 100 µM (inactive)
[39]
  GI50: > 100 µM (inactive)
[40]
  GI50: > 100 µM (inactive)
[41]
  GI50: > 100 µM (inactive)
[42]
  GI50: > 100 µM (inactive)
[43]
  GI50: > 100 µM (inactive)
[44]
  GI50: > 100 µM (inactive)
[45]
  GI50: > 100 µM (inactive)
[46]
  GI50: > 100 µM (inactive)
[47]
  GI50: > 100 µM (inactive)
[48]
  GI50: > 100 µM (inactive)
[49]
  GI50: > 100 µM (inactive)
[50]
  GI50: > 100 µM (inactive)
[51]
  GI50: > 100 µM (inactive)
[52]
  GI50: > 100 µM (inactive)
[53]
  GI50: > 100 µM (inactive)
[54]
  GI50: > 100 µM (inactive)
[55]
  GI50: > 100 µM (inactive)

## CCOC(=O)CNC1=Nc2ccccc2C(=O)N2CSCC12 (stereo unspecified)
[1]
  GI50: > 100 µM (inactive)
[2]
  GI50: > 100 µM (inactive)
[3]
  GI50: > 100 µM (inactive)
[4]
  GI50: > 100 µM (inactive)
[5]
  GI50: > 100 µM (inactive)
[6]
  GI50: > 100 µM (inactive)
[7]
  GI50: > 100 µM (inactive)
[8]
  GI50: > 100 µM (inactive)
[9]
  GI50: > 100 µM (inactive)
[10]
  GI50: > 100 µM (inactive)
[56]
  GI50: > 100 µM (inactive)
[11]
  GI50: > 100 µM (inactive)
[12]
  GI50: > 100 µM
[14]
  GI50: > 100 µM (inactive)
[15]
  GI50: > 100 µM (inactive)
[16]
  GI50: > 100 µM (inactive)
[17]
  GI50: > 100 µM (inactive)
[18]
  GI50: > 100 µM (inactive)
[19]
  GI50: > 100 µM (inactive)
[20]
  GI50: > 100 µM (inactive)
[21]
  GI50: > 100 µM (inactive)
[22]
  GI50: > 100 µM (inactive)
[23]
  GI50: > 100 µM (inactive)
[24]
  GI50: > 100 µM (inactive)
[25]
  GI50: > 100 µM (inactive)
[26]
  GI50: > 100 µM (inactive)
[27]
  GI50: > 100 µM (inactive)
[28]
  GI50: > 100 µM (inactive)
[57]
  GI50: > 100 µM (inactive)
[30]
  GI50: > 100 µM (inactive)
[31]
  GI50: > 100 µM (inactive)
[32]
  GI50: > 100 µM (inactive)
[33]
  GI50: > 100 µM (inactive)
[34]
  GI50: > 100 µM (inactive)
[35]
  GI50: > 100 µM (inactive)
[36]
  GI50: > 100 µM (inactive)
[37]
  GI50: > 100 µM (inactive)
[38]
  GI50: > 100 µM (inactive)
[39]
  GI50: > 100 µM (inactive)
[40]
  GI50: > 100 µM (inactive)
[41]
  GI50: > 100 µM (inactive)
[42]
  GI50: > 100 µM (inactive)
[43]
  GI50: > 100 µM (inactive)
[44]
  GI50: > 100 µM (inactive)
[45]
  GI50: > 100 µM (inactive)
[46]
  GI50: > 100 µM (inactive)
[47]
  GI50: > 100 µM (inactive)
[48]
  GI50: > 100 µM (inactive)
[49]
  GI50: > 100 µM (inactive)
[50]
  GI50: > 100 µM (inactive)
[51]
  GI50: > 100 µM (inactive)
[52]
  GI50: > 100 µM (inactive)
[53]
  GI50: > 100 µM (inactive)
[54]
  GI50: > 100 µM (inactive)
[55]
  GI50: > 100 µM (inactive)

## Cc1cccc(NC(=O)CCl)c1
[1]
  GI50: 3.67 µM (inactive)
[2]
  GI50: > 10 µM (inactive)
[3]
  GI50: > 10 µM (inactive)
[4]
  GI50: > 10 µM (inactive)
[5]
  GI50: > 10 µM (inactive)
[6]
  GI50: > 10 µM (inactive)
[7]
  GI50: 2.52 µM (inactive)
[8]
  GI50: > 10 µM (inactive)
[9]
  GI50: > 10 µM (inactive)
[10]
  GI50: > 10 µM (inactive)
[56]
  GI50: > 10 µM (inactive)
[11]
  GI50: 6.95 µM (inactive)
[12]
  GI50: > 10 µM
[13]
  GI50: 3.56 µM (inactive)
[14]
  GI50: > 10 µM (inactive)
[15]
  GI50: 7.87 µM (inactive)
[16]
  GI50: > 10 µM (inactive)
[17]
  GI50: > 10 µM (inactive)
[18]
  GI50: 6.11 µM (inactive)
[19]
  GI50: > 10 µM (inactive)
[20]
  GI50: 6.19 µM (inactive)
[21]
  GI50: 8.77 µM (inactive)
[22]
  GI50: > 10 µM (inactive)
[23]
  GI50: 5.93 µM (inactive)
[24]
  GI50: 9.02 µM (inactive)
[25]
  GI50: > 10 µM (inactive)
[26]
  GI50: > 10 µM (inactive)
[27]
  GI50: 3.93 µM (inactive)
[28]
  GI50: 7.36 µM (inactive)
[29]
  GI50: 4.26 µM (inactive)
[57]
  GI50: > 10 µM (inactive)
[30]
  GI50: 1.95 µM (inactive)
[31]
  GI50: > 10 µM (inactive)
[32]
  GI50: 6.4 µM (inactive)
[33]
  GI50: 3.29 µM (inactive)
[34]
  GI50: > 10 µM (inactive)
[35]
  GI50: 9.53 µM (inactive)
[36]
  GI50: > 10 µM (inactive)
[37]
  GI50: > 10 µM (inactive)
[38]
  GI50: 8.49 µM (inactive)
[39]
  GI50: 8.69 µM (inactive)
[40]
  GI50: > 10 µM (inactive)
[58]
  GI50: 9.31 µM (inactive)
[41]
  GI50: > 10 µM (inactive)
[42]
  GI50: > 10 µM (inactive)
[43]
  GI50: 7.71 µM (inactive)
[44]
  GI50: > 10 µM (inactive)
[45]
  GI50: 7.67 µM (inactive)
[46]
  GI50: > 10 µM (inactive)
[48]
  GI50: 9.93 µM (inactive)
[49]
  GI50: > 10 µM (inactive)
[50]
  GI50: > 10 µM (inactive)
[51]
  GI50: > 10 µM (inactive)
[52]
  GI50: 2.24 µM (inactive)
[53]
  GI50: > 10 µM (inactive)
[54]
  GI50: 5.64 µM (inactive)
